Tests used:
Conditions in all cases: Hit No
[1] = target: T1, Endonuclease III-like protein 1 (Homo sapiens) (UniProt P78549);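 further: enzyme assay tracking NTHL1 cutting and release of a quenched double-stranded DNA oligo substrate, read as fluorescence at 594 nm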
T1 sequence (whole entry): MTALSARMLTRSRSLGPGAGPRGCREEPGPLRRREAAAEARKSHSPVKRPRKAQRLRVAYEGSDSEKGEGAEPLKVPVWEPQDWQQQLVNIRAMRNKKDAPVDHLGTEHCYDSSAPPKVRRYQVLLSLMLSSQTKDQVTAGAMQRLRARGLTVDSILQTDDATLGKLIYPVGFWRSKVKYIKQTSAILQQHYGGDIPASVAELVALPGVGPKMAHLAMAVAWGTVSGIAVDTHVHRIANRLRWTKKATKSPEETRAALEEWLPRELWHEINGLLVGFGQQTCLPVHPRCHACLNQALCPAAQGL
Description: Inhibition of NTHL1 by quantifying inhibition of NTHL1-mediated cleavage and dissociation of quenched duplex DNA oligonucleotides, measured as fluorescence at 594 nm.

[2] = target: T2, Endonuclease 8-like 2 (Homo sapiens) (UniProt Q969S2);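 further: fluorescence at 594 nm reports NEIL2 cutting and release of a quenched double-stranded DNA oligo substrate, reduced signal read as inhibition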
T2 sequence (whole entry): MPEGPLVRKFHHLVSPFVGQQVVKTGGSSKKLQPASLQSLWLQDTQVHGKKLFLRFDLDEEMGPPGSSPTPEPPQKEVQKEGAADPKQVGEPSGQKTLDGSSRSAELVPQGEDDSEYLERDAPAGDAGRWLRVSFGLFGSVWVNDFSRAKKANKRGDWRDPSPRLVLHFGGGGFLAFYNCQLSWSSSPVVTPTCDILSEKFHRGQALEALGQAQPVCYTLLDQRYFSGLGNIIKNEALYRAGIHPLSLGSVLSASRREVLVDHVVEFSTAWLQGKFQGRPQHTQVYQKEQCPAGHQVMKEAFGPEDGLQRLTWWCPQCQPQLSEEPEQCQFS
Description: Inhibition of NEIL2 by quantifying inhibition of NEIL2-mediated cleavage and dissociation of quenched duplex DNA oligonucleotides, measured as fluorescence at 594 nm.

[3] = target: Methyl-CpG-binding domain protein 4 (Homo sapiens) (UniProt O95243);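 further: MBD4 activity read as fluorescence at 594 nm from cleavage and release of a quenched duplex DNA oligonucleotide, with APE1 coupled to incise the strand and raise turnover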
Methyl-CpG-binding domain protein 4 (Homo sapiens), sequence (O95243 whole entry, the tested form may be a part): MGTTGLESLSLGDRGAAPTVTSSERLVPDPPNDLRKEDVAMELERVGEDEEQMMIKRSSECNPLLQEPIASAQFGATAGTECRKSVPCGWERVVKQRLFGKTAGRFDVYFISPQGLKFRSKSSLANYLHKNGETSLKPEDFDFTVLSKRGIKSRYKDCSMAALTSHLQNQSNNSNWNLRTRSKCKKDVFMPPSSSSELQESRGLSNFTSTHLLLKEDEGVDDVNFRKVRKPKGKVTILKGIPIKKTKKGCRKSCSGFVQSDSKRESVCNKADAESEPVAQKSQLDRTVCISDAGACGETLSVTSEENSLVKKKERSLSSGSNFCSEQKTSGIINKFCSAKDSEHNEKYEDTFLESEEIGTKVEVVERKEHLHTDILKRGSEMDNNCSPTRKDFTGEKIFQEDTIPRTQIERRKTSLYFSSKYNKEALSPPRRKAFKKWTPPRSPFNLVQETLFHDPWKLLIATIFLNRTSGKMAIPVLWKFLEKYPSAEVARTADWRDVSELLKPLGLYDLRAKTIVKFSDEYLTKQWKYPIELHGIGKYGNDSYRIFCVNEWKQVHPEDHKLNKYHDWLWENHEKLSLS
Description: Inhibition of MBD4 by quantifying inhibition of MBD4-mediated cleavage and dissociation of quenched duplex DNA oligonucleotides, measured as fluorescence at 594 nm. To generate a functional strand incision and increase turn-over this assay is coupled to APE1.

[4] = target: T3, Adenine DNA glycosylase (Homo sapiens) (UniProt Q9UIF7);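 further: human MUTYH activity read as 594 nm fluorescence from cleavage and release of a quenched DNA duplex, coupled with APE1 for strand incision, lower signal meaning inhibition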
T3 sequence (whole entry): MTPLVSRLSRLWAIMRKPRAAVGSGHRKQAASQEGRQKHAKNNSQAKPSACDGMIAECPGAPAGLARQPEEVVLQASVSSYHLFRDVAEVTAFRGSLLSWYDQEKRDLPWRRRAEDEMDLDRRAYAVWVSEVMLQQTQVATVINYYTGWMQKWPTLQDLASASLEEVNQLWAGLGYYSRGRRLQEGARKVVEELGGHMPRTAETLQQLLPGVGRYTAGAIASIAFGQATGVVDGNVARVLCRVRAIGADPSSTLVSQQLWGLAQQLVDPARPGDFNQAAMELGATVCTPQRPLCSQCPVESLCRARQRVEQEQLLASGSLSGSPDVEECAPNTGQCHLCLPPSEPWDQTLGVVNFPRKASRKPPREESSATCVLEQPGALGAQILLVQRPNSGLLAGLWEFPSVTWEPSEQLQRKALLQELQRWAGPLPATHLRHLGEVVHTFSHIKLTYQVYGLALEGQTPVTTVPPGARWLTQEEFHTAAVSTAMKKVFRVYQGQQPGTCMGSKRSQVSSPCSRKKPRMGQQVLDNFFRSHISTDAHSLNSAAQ
Description: Inhibition of MUTYH by quantifying inhibition of MUTYH-mediated cleavage and dissociation of quenched duplex DNA oligonucleotides, measured as fluorescence at 594 nm. To generate a functional strand incision and increase turn-over this assay is coupled to APE1.

[5] = target: G/T mismatch-specific thymine DNA glycosylase (Homo sapiens) (UniProt Q13569);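 further: human TDG cleavage of quenched duplex DNA oligonucleotides coupled to APE1, strand release read as fluorescence at 594 nm, inhibition of TDG activity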
G/T mismatch-specific thymine DNA glycosylase (Homo sapiens), sequence (Q13569 whole entry): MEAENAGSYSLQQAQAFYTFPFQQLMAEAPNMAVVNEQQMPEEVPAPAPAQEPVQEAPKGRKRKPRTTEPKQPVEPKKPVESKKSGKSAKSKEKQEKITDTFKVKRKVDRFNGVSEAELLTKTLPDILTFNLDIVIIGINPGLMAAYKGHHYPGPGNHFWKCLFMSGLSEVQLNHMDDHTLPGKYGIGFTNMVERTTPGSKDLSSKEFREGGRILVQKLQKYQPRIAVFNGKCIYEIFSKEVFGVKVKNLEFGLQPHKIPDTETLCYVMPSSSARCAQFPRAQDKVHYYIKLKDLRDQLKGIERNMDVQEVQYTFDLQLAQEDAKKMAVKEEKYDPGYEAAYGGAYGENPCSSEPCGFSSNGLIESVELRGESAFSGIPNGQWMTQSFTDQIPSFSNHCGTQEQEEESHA
Description: Inhibition of TDG by quantifying inhibition of TDG-mediated cleavage and dissociation of quenched duplex DNA oligonucleotides, measured as fluorescence at 594 nm. To generate a functional strand incision and increase turn-over this assay is coupled to APE1.

[6] = target: T4, Single-strand selective monofunctional uracil DNA glycosylase (Homo sapiens) (UniProt Q53HV7);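 further: enzymatic SMUG1 assay coupled with APE1, reading fluorescence at 594 nm released when a quenched double-stranded DNA oligonucleotide substrate is cleaved and separated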
T4 sequence (whole entry): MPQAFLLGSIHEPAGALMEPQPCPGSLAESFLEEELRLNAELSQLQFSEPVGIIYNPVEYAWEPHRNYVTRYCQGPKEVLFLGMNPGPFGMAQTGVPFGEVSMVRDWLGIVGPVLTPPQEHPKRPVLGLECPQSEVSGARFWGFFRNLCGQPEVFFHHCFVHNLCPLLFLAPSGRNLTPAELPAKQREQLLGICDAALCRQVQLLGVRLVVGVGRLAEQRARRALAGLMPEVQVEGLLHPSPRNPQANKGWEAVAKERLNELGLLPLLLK
Description: Inhibition of SMUG1 by quantifying inhibition of SMUG1-mediated cleavage and dissociation of quenched duplex DNA oligonucleotides, measured as fluorescence at 594 nm. To generate a functional strand incision and increase turn-over this assay is coupled to APE1.

[7] = target: Uracil-DNA glycosylase (Homo sapiens) (UniProt P13051);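 further: UNG excision on a quenched double-stranded DNA oligo probe, with APE1 added for strand incision and turnover, read as fluorescence at 594 nm as strands separate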
Uracil-DNA glycosylase (Homo sapiens), sequence (P13051 whole entry): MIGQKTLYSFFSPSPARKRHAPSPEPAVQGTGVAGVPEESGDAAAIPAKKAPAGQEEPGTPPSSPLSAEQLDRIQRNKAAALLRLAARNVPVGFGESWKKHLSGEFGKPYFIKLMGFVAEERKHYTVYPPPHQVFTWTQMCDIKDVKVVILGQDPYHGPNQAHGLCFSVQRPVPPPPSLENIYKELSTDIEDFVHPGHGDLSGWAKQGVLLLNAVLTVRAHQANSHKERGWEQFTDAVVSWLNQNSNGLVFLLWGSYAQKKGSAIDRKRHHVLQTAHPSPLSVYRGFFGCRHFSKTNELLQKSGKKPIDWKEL
Description: Inhibition of UNG by quantifying inhibition of UNG-mediated cleavage and dissociation of quenched duplex DNA oligonucleotides, measured as fluorescence at 594 nm. To generate a functional strand incision and increase turn-over this assay is coupled to APE1.

[8] = target: N-glycosylase/DNA lyase (Homo sapiens) (UniProt O15527);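 further: OGG1 cleavage of a quenched duplex DNA oligonucleotide, coupled to APE1 for strand incision, read as fluorescence at 594 nm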
N-glycosylase/DNA lyase (Homo sapiens), sequence (O15527 whole entry): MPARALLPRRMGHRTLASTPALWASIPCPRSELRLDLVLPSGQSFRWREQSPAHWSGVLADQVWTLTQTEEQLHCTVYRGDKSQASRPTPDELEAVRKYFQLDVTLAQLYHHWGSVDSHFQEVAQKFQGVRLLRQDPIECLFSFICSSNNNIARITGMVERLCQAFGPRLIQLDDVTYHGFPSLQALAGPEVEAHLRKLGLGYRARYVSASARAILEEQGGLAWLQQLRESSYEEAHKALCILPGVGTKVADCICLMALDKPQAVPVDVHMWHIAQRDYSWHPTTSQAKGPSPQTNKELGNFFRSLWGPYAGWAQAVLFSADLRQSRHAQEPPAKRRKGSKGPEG
Description: Inhibition of OGG1 by quantifying inhibition of OGG1-mediated cleavage and dissociation of quenched duplex DNA oligonucleotides, measured as fluorescence at 594 nm. To generate a functional strand incision and increase turn-over this assay is coupled to APE1.

Row | SMILES | inhibition ([1]; Compound Concentration 10.0 uM) | inhibition ([2]; Compound Concentration 10.0 uM) | inhibition ([3]; Compound Concentration 10.0 uM) | inhibition ([4]; Compound Concentration 10.0 uM) | inhibition ([5]; Compound Concentration 10.0 uM) | inhibition ([6]; Compound Concentration 10.0 uM) | inhibition ([7]; Compound Concentration 10.0 uM) | inhibition ([8]; Compound Concentration 10.0 uM) | inhibition ([1]; Compound Concentration 1.0 uM) | inhibition ([2]; Compound Concentration 1.0 uM) | inhibition ([3]; Compound Concentration 1.0 uM) | inhibition ([4]; Compound Concentration 1.0 uM) | inhibition ([5]; Compound Concentration 1.0 uM) | inhibition ([6]; Compound Concentration 1.0 uM) | inhibition ([7]; Compound Concentration 1.0 uM) | inhibition ([8]; Compound Concentration 1.0 uM)
1 | O=C(O)CCCc1cc2cc(Cl)ccc2n1S(=O)(=O)c1ccc2ncsc2c1 | 1.34% | 2.32% | 58.8% | -4.2% | 99% | 23.9% | -3.11% | 5.59% |  |  |  |  |  |  |  | 
2 | CCOC(=O)N1CCC(CN(Cc2ccc(Cl)cc2)Cc2ccc([N+](=O)[O-])s2)C1 (centres undefined) | 7.92% | -4.57% | 55.4% | -8.96% | 97.5% | 16.2% | -1.49% | 16.5% |  |  |  |  |  |  |  | 
3 | COc1cc(Nc2nc(C)cc(-c3cnn4nc(OC)ccc34)n2)cc(C(F)(F)F)c1 | 8.46% | 2.66% | 26.4% | -7.4% | 47.8% | 16.3% | -0.61% | -9.1% |  |  |  |  |  |  |  | 
4 | CC1=C(C#N)C(c2ccc3[nH]nc(C)c3c2)C(C#N)=C(C)N1 | 7.43% | 1.25% | 24.9% | 18.6% | 72.9% | 17.6% | 2.96% | 4.91% |  |  |  |  |  |  |  | 
5 | O=S(=O)(c1ccccc1)N(CC(F)(F)F)c1ccc(C(O)(C(F)(F)F)C(F)(F)F)cc1 | -5.89% | -6.61% | 64.2% | 11.1% | 50.9% | 0.186% | -2.07% | 22.5% |  |  |  |  |  |  |  | 
6 | CO[C@@H](C)c1c(Nc2ccc([C@H](N(C)C(=O)C3CCS(=O)(=O)CC3)C(F)(F)F)cc2)cnc2cc(Cl)nn12 | -3.92% | 5.63% | 77.6% | -6.71% | 48.6% | -7.05% | -1.74% | -4% |  |  |  |  |  |  |  | 
7 | CCC(=O)N[C@@H]1CC[C@H](C(=O)N(C)c2ccc(-c3nc4ccccc4o3)cc2)C1 | 3.97% | 4.61% | 54.4% | -7.15% | 37.2% | 5.39% | 1.95% | -5.03% |  |  |  |  |  |  |  | 
8 | CN1C(=O)[C@@H](N2CCc3cn(Cc4ccccc4)nc3C2=O)COc2ccccc21 |  |  |  |  |  |  |  |  | 1.82% | -5.67% | 21.1% | 5.54% | 42.8% | 12.5% | 2.22% | 5.71%
9 | COc1ccc(COc2ccc(Cc3cnc(N)nc3N)cc2OC)cc1 | -8.98% | -2.46% | 24.9% | -3.46% | 46.5% | 6.38% | -0.384% | 6.26% |  |  |  |  |  |  |  | 
10 | C[C@@H]1CCN(C(=O)CC#N)C[C@@H]1N(C)c1ncnc2[nH]ccc12 |  |  |  |  |  |  |  |  | 10.6% | -1.11% | 20.6% | 9.35% | 61.6% | 24.1% | 6.67% | 4.23%
11 | CN1CCN(C(=O)C(C)(C)c2ccc(C(=O)Nc3cn4cc(-c5cc(C(C)(C)C)cc(C(C)(C)C)c5)ccc4n3)cc2)CC1 | -6.55% | -7.12% | -6.81% |  | 15.4% | 11.1% | 2.56% | 18.8% | -0.61% |  | -6.71% | -8.55% | 41% | 20% | 3.16% | 
12 | O=C(c1ccc2c(ccn2-c2ccc(F)cc2)c1)N1CC(N2CCN(C(=O)c3nccs3)CC2)C1 | -0.63% | -1.76% | 63.5% | -6.82% | 45.8% | 21.1% | 7.11% | 5% |  |  |  |  |  |  |  | 
13 | COc1nc2ccc([C@@](O)(c3ccc(Cl)cc3)c3cncn3C)cc2c(Cl)c1Cc1ccc(-n2cccn2)cc1 | -3.26% | -3.55% | 64.5% | 6.4% | 42.9% | 16.6% | 9.26% | 14.3% |  |  |  |  |  |  |  | 
